Laboratory results taken from patent publication US8394779B2, “Methods of modulating angiogenesis via TRPV4” (Children's Medical Center Corporation, priority 2008, dated 2013).
Entries after “also recorded” stand apart in the source; their conditions may differ. Where no end group is shown, it is not given here. [ ]: non-standard residue; d: D form.

Tests used:
[1] = system: cytosolic calcium in CE cells; conditions: within 2-5 sec; cited from earlier work
[2] = system: cytosolic calcium in CE cells; assay: Calcium influx on direct force application to cell surface integrins; assay type: cell-based, bovine; conditions: within 5 to 50 msec
[3] = system: β1 integrin; assay: Strain-induced β1 integrin activation (GST-FNIII8-11 binding, T788/789 phosphorylation); assay type: cell-based; conditions: human CE cells; 30 min pretreatment
Description: (§1) Western blotting were performed according to methods published in Mammoto et. al. (2007) (J. Cell Sci., 120:456-467). Membranes containing transferred protein were blocked in 3% BSA/TBST for 1 h and incubated overnight with primary antibodies against AKT and phospho Ser-473 AKT (1:1000), phospho-Thr 788/789 of […] integrin cytoplasmic tail (1:1000), ERK1/2 and phospho ERK1/2 (1:1000), FAK and phospho FAK-pY397 (1:1000), actin (1:1000) and TRPV4 (1:1000) at 4° C. The membranes were subsequently washed incubated with HRP-conjugated secondary antibodies (1:5000) for 1 h and washed and incubated with SUPERSIGNAL® West Pico ECL reagent from Pierce Biotechnology Inc. (USA) and exposed to Kodak X-ray film (SIGMA ALDRICH®).
(§2) β1 integrin activation was measured using a glutathione S-transferase (GST) fusion protein consisting of FN III repeat 8-11 domains or 12G10 antibodies (Orr, A. W. et. al., 2006, Mol. Biol. Cell 17:4686-4697). Briefly, cells subjected to mechanical stretch were incubated with either 5 μg/ml of GST-FN III8-11 protein or 12G10 antibodies in PBS containing Ca^2+ and Mg^2+ for 30 min at 37° C., washed and lysed in SDS-sample buffer. The samples were separated on SDS-PAGE and the bound reagents were assessed on Western blots using anti GST-antibodies and HRP-conjugated secondary antibodies.

[4] = system: β1 integrin; assay: Strain-induced β1 integrin activation (GST-FNIII8-11 / 12G10 binding, T788/789 phosphorylation); assay type: cell-based; conditions: bovine CE cells, GST-FNIII8-11 and 12G10 binding
Description: as §1, §2

[5] = system: cytosolic calcium in CE cells; assay: Mechanical strain-induced calcium influx, FLUO-4 calcium imaging; assay type: cell-based, bovine; conditions: strain 15%, 3-4 sec, gadolinium chloride 25 μM, siRNA 10 nM
Description: (§3) CE cells cultured on fibronectin-coated 6 well UNIFLEX™ (FLEXCELL® International) plates for 24 hours were subjected to uniaxial cyclic stretch (10% elongation; 1 Hz frequency) for 1-2 h using a FLEXERCELL® TENSION PLUS™ System (FLEXCELL® International). In some experiments, CE cells were plated on fibronectin-coated 6 well BIOFLEX® (FLEXCELL® International) for lh and subjected to static stretch (15% elongation) for 1-15 min. Control cells were maintained under identical conditions in the absence of strain application. […] Images were acquired for every 4 seconds and analyzed using IP lab software and Microsoft Excel as described in Matthews, et. al. (2006) (J. Cell Sci., 119:508-518). Calcium imaging with TRPV channel activators was performed on cells cultured on MatTek glass bottomed dishes on LEICA® Confocal Microscope and analyzed using LEICA® software and MICROSOFT® EXCEL®. siRNA knock down of TRPV channels: smart pool siRNAs (10 nM) of TRPV2, TRPV4 (both from Dharmacon), TRPC1 (AMBION®) or control (QIAGEN®) siRNAs was transfected into CE cells using SILENTFECT™ reagent (BIORAD®) as described in Mammoto et. al. (2007) (J. Cell Sci., 120:456-467). […] The knock down of TRPV channel expression was assessed using RT-PCR with species-specific primers and Western blotting. […]

[6] = system: bovine CE cells; assay: Cyclic strain-induced CE cell reorientation (alignment); assay type: cell-based
Description: as §3

[7] = system: PI3K; assay: Strain-induced PI3K activity (GFP-AKT-PH translocation, AKT Ser-473 phosphorylation); assay type: cell-based, bovine; conditions: mechanical strain 15%
Description: Cells adherent to flexible ECM substrates and subjected to mechanical stretch were washed in PBS, fixed in 4% paraformaldehyde for 30 min either mounted on glass slides (for visualizing GFP-AKT-PH translocation) or permeabilized with 0.25% TRITON®-X 100/PBS for 5 min for immuno staining. […] Images were acquired on a LEICA® Confocal SP2 microscope and processed using LEICA® software and Adobe Photoshop. GFP-AKT-PH domain translocation to the plasma membrane was quantified measuring either ratio of the perimeter of whole cell membrane and the membrane that contains the GFP-AKT-PH domain or the ratio of GFP fluorescence intensity of translocated GFP-AKT-PH domain and cytosol adjacent to the membrane. […] Statistical differences between experimental groups were determined using the student t-test.
Membranes containing transferred protein were blocked in 3% BSA/TBST for 1 h and incubated overnight with primary antibodies against AKT and phospho Ser-473 AKT (1:1000), phospho-Thr 788/789 of 131 integrin cytoplasmic tail (1:1000), ERK1/2 and phospho ERK1/2 (1:1000), FAK and phospho FAK-pY397 (1:1000), actin (1:1000) and TRPV4 (1:1000) at 4° C. […]

[8] = system: VEGF; conditions: cited from earlier work
[9] = system: TRPV4-EGFP; assay: Whole-cell patch clamp of bovine CE cells transfected with TRPV4-EGFP; assay type: cell-based; conditions: 4 μM
Description: One day after bovine CE cells were transfected with TRPV4-EGFP, they were plated on gelatin-coated glass coverslips and allowed to grow for ˜24 h prior to recording. Cells were recorded in the whole-cell mode using borosilicate glass pipettes (1-3 MΩ) containing: (in mM) 120 CsMeSO3, 10 EGTA, 2 MgCl2, 10 HEPES; pH and osmolarity were adjusted with CsOH or HMeSO3, as needed, to 7.2 (23° C.) and ˜300 mOsm, respectively. Cells were bathed in a solution containing (in mM): 138 NaCl, 5 KCl, 1.8 CaCl2, 1 MgCl2, 10 HEPES; pH and osmolarity were adjusted with NaOH or HCl, as needed, to 7.4 (23° C.) and ˜310 mOsm, respectively. Cells were held at −40 mV for 3-5 min to allow for intracellular dialysis. Bath superfusion was stopped prior to initiating the recording of currents resulting from the indicated voltage protocol applied every 5 s. Immediately before use, a 4-α-PDD stock solution (2 mM in EtOH, on ice) was diluted 1:50 in bath solution under vortex and 50 μl was subsequently added to a still bath (0.5 ml) by pipette (final concentrations of 4 μM 4-α-PDD and 0.2% EtOH) and mixed by 3 gentle up/down pipette strokes. […]

[10] = biological target: T1, TRPV4 channels (Homo sapiens, UniProt Q9HBA0); assay: Calcium imaging with TRPV channel activator; assay type: cell-based; conditions: human CE cells, 2 μM
T1 construct: host or cells: human dermal microvascular endothelial cells (HMVECs)
T1 sequence (Q9HBA0 whole entry): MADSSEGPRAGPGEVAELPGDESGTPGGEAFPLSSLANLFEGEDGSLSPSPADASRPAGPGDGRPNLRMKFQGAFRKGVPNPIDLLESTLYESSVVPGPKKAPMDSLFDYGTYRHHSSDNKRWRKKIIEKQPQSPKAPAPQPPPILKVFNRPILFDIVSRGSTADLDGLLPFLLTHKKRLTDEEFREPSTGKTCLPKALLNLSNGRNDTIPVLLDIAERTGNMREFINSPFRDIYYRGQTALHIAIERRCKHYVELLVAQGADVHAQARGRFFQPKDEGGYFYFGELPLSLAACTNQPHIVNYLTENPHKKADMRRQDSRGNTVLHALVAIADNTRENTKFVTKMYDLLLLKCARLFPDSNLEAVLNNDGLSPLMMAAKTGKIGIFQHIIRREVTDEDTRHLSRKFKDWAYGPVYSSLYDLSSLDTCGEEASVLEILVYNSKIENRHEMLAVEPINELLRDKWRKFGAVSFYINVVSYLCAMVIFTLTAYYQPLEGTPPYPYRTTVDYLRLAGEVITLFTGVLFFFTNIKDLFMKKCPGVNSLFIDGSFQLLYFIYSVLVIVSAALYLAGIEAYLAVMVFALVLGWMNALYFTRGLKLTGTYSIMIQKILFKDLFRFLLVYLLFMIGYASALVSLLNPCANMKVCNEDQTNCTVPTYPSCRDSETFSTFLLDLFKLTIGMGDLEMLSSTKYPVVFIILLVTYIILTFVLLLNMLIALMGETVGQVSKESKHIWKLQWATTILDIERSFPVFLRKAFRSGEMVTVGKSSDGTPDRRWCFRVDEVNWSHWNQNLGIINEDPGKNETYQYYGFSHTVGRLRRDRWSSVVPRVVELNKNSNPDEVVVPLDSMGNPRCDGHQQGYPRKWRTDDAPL
Description: as §3

[11] = biological target: T2, TRPV4 channels (Bos taurus, UniProt A0A8F4X677); assay: Calcium imaging with TRPV channel activator; assay type: cell-based; conditions: bovine CE cells, 2 μM
T2 construct: endogenous in cells; host or cells: bovine CE cells
T2 sequence (A0A8F4X677 1-871): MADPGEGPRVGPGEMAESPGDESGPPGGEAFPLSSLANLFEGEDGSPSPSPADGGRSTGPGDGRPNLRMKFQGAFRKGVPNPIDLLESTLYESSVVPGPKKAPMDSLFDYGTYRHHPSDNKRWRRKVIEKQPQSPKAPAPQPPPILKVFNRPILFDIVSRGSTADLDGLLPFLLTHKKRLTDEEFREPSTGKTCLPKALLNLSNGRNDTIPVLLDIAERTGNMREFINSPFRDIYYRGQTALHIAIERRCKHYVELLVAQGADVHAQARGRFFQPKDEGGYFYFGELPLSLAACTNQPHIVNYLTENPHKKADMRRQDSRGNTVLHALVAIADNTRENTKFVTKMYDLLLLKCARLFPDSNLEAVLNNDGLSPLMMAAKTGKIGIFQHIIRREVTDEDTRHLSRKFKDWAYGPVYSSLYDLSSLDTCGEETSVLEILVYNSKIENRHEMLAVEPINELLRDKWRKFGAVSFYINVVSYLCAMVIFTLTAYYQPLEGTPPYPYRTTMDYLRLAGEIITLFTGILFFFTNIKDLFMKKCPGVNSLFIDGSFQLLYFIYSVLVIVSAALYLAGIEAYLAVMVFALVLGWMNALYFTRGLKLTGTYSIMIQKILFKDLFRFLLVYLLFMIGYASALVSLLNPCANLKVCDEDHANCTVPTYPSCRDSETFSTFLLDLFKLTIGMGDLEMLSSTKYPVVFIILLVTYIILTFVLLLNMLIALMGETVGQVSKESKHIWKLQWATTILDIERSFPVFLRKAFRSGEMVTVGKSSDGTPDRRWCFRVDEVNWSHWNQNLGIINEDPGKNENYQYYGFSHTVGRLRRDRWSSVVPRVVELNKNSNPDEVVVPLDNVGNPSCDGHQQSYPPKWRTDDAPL
Description: as §3

[12] = mice; cited from earlier work
[13] = system: CE cells
[14] = system: VEGF; conditions: in vivo; cited from earlier work

[Cl][Gd]([Cl])[Cl] [gadolinium chloride]
calcium influx on direct force application to β1 integrins (magnetic tweezers) [1]: blocked
calcium influx on force application to integrins [2]: inhibited
β1 integrin activation in response to mechanical strain [3]: significantly inhibited
β1 integrin activation in response to mechanical strain [4]: significantly inhibited
calcium influx / cytosolic calcium induced by mechanical strain [5]: almost completely abolished; also recorded: reduced influx
CE cell reorientation / re-alignment induced by mechanical strain [6]: greatly suppressed
strain-induced translocation of AKT-PH-GFP to the membrane [7]: inhibited

CN(C)c1ccc(/C=C2\C(=O)Nc3ccccc32)cc1 [SU 4312]
vessel formation [8]: blocked

CCCCCCCCCC(=O)O[C@@H]1[C@@H](C)[C@@]2(O)[C@@H](C=C(CO)C[C@@]3(O)C(=O)C(C)=C[C@@H]23)[C@@H]2C(C)(C)[C@]12OC(=O)CCCCCCCCC [4-α-PDD, 4-α-phorbol 12, 13-didecanoate]
TRPV4 currents, whole-cell clamp [9]: robust TRPV4 currents
calcium signal [10]: robust calcium signal
calcium signal [11]: robust calcium signal

CO[C@@H]1[C@H](OC(=O)NC(=O)CCl)CC[C@]2(CO2)[C@H]1[C@@]1(C)O[C@@H]1CC=C(C)C [TNP-470]
diet-induced and genetic obesity [12]: prevent
vascularity in the adipose tissue [12]: reduced

N.N.N.N.N.N.N.N.N.N.N.N.N.N.[Cl-].[Cl-].[Cl-].[Cl-].[Cl-].[Cl-].[O-2].[O-2].[Ru+3].[Ru+3].[Ru+4] [ruthenium red]
calcium influx / cytosolic calcium induced by mechanical strain [5]: significantly suppressed; also recorded: reduced influx
CE cell reorientation / re-alignment induced by mechanical strain [6]: significantly suppressed; also recorded: inhibits
CE cell apoptosis (poly(ADPribosyl) polymerase cleavage) [13]: did not effect
CE cell proliferation (Ki 67 staining) [13]: did not effect

dRK6: Anti-VEGF hexapeptide RRKRRR (SEQ. ID. NO. 12) ([dR][dR][dK][dR][dR][dR])
arthritis severity [14]: suppress and mitigate
